Measured values from PubChem BioAssay AID1845212 (Molecular Pharmacology Branch, DTP, NCI, 2023).

Tested on: NCI-H719 tumor spheroids, viability
Test: Anticancer human tumor NCI-H719 cell line growth inhibition;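 further: spheroids exposed to compounds for seven days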;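 on viability, T/C: percent viability relative to DMSO vehicle control as 100%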
Conditions: spheroids with HUVEC and MSC; for IC50: curve of first compound; for viability, T/C: stronger effect = lower value
Summary of the method: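 Complex tumor spheroids combined malignant cells with endothelial cells and mesenchymal stem cells. DNA-damaging drugs and DNA repair inhibitors were tested alone and in combination, at half-log dilutions down from clinical Cmax (top 10 microM if Cmax unknown), 0.25% DMSO final.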

[1] = second compound 30 pM, first compound 0.00949 µM
[2] = second compound 30 pM, first compound 0.03 µM
[3] = second compound 30 pM, first compound 0.0949 µM
[4] = second compound 30 pM, first compound 0.3 µM
[5] = second compound 30 pM, first compound 0.949 µM
[6] = second compound 30 pM, first compound 3 µM
[7] = second compound 94.9 pM, first compound 0.00949 µM
[8] = second compound 94.9 pM, first compound 0.03 µM
[9] = second compound 94.9 pM, first compound 0.0949 µM
[10] = second compound 94.9 pM, first compound 0.3 µM
[11] = second compound 94.9 pM, first compound 0.949 µM
[12] = second compound 94.9 pM, first compound 3 µM
[13] = second compound 0.0003 µM, first compound 0.00949 µM
[14] = second compound 0.0003 µM, first compound 0.03 µM
[15] = second compound 0.0003 µM, first compound 0.0949 µM
[16] = second compound 0.0003 µM, first compound 0.3 µM
[17] = second compound 0.0003 µM, first compound 0.949 µM
[18] = second compound 0.0003 µM, first compound 3 µM
[19] = second compound 0.000949 µM, first compound 0.00949 µM
[20] = second compound 0.000949 µM, first compound 0.03 µM
[21] = second compound 0.000949 µM, first compound 0.0949 µM
[22] = second compound 0.000949 µM, first compound 0.3 µM
[23] = second compound 0.000949 µM, first compound 0.949 µM
[24] = second compound 0.000949 µM, first compound 3 µM
[25] = second compound 0.003 µM, first compound 0.00949 µM
[26] = second compound 0.003 µM, first compound 0.03 µM
[27] = second compound 0.003 µM, first compound 0.0949 µM
[28] = second compound 0.003 µM, first compound 0.3 µM
[29] = second compound 0.003 µM, first compound 0.949 µM
[30] = second compound 0.003 µM, first compound 3 µM

SMILES	IC50 (second compound 30 pM) [nM]	IC50 (second compound 94.9 pM) [nM]	IC50 (second compound 0.0003 µM) [nM]	IC50 (second compound 0.000949 µM) [nM]	IC50 (second compound 0.003 µM) [nM]	viability, T/C [1] [%]	viability, T/C [2] [%]	viability, T/C [3] [%]	viability, T/C [4] [%]	viability, T/C [5] [%]	viability, T/C [6] [%]	viability, T/C [7] [%]	viability, T/C [8] [%]	viability, T/C [9] [%]	viability, T/C [10] [%]	viability, T/C [11] [%]	viability, T/C [12] [%]	viability, T/C [13] [%]	viability, T/C [14] [%]	viability, T/C [15] [%]	also measured
CNCc1ccc(-c2cc(-c3nc(-c4ccc(S(=O)(=O)C(C)C)cc4)cnc3N)on2)cc1 + COc1cc2c(cc1O)CCNC21CSC2c3c(OC(C)=O)c(C)c4c(c3C(COC1=O)N1C(O)C3Cc5cc(C)c(OC)c(O)c5C(C21)N3C)OCO4	84.2	< 9.49	< 9.49	< 9.49	< 9.49	79.9	86.5	45	15.5	10.5	1.88	34.3	29.2	14.2	8.3	9.95	0.36	8.48	25.4	8.28	viability, T/C [16]: 10.4%; viability, T/C [17]: 9.76%; viability, T/C [18]: 0.75%; viability, T/C [19]: 8.38%; viability, T/C [20]: 9.01%; viability, T/C [21]: 8.98%; viability, T/C [22]: 9.91%; viability, T/C [23]: 10.3%; viability, T/C [24]: 0.62%; viability, T/C [25]: 0.5%; viability, T/C [26]: 1.4%; viability, T/C [27]: 0.58%; viability, T/C [28]: 0.82%; viability, T/C [29]: 0.56%; viability, T/C [30]: 1.15%
Cn1ncnc1[C@H]1c2n[nH]c(=O)c3cc(F)cc(c23)N[C@@H]1c1ccc(F)cc1 + COc1cc2c(cc1O)CCNC21CSC2c3c(OC(C)=O)c(C)c4c(c3C(COC1=O)N1C(O)C3Cc5cc(C)c(OC)c(O)c5C(C21)N3C)OCO4	< 9.49	< 9.49	< 9.49	< 9.49	< 9.49	13.1	10.3	8.87	10.9	8.74	6.49	8.85	7.16	8.84	7.47	7.26	7.49	9.25	8.07	9.38	viability, T/C [16]: 10.2%; viability, T/C [17]: 7.28%; viability, T/C [18]: 7.06%; viability, T/C [19]: 7.36%; viability, T/C [20]: 7.49%; viability, T/C [21]: 7.37%; viability, T/C [22]: 6.85%; viability, T/C [23]: 5.96%; viability, T/C [24]: 4.33%; viability, T/C [25]: 0.57%; viability, T/C [26]: 0.36%; viability, T/C [27]: 0.96%; viability, T/C [28]: 0.6%; viability, T/C [29]: 0.86%; viability, T/C [30]: 0.88%
